Columns and labels:
NQO1 [1] = assay: Induction of NQO1 in Hepa1c1c7 murine hepatoma cells; type: cell-based; settings: Mus musculus, Hepa-1c1c7; Hepa1c1c7 cells, 48 h treatment; read-out: NQO1 CD (concentration required to double the specific enzyme activity of NQO1)
Source text: In this assay, the concentration required to double (CD value) the specific enzyme activity of NQO1 is used to quantify inducer potency. […] Dinkova-KOstova, A. T. et al. 2012). […] These compounds may be more robust inducers than monocyclic compounds. [table]

NQO1 [2] = settings: Hepa1c1c murine hepatoma cells; cited from earlier work
[3] = test system: NQO1 and glutathione S-transferases; settings: mice, 9.2 mg per kg of food in the diet; cited from earlier work
Keap1/Nrf2/ARE pathway = settings: topical daily 200 nmol, five days per week for four weeks, cited from earlier work

## C#C[C@]12C=C(C#N)C(=O)C=C1[C@@]1(C)C=C(C#N)C(=O)C(C)(C)[C@@H]1CC2 (racemic) [TBE-31 (1), (±)-(4bS,8aR,10aS)-10a-ethynyl-4b,8,8-trimethyl-3,7-dioxo-3,4b,7,8,8a,9,10, 10a-octahydrophenanthrene-2,6-dicarbonitrile]
NQO1 [1]
  EC (2-fold NQO1 activity): 0.0009 µM
iNOS
  IC50: 1 nM
NQO1 [2]
  upregulation of NQO1: upregulates NAD(P)H: quinone oxidoreductase 1 (NQO1)
[3]
  induction of NQO1 and glutathione S-transferases in the stomach, skin, and liver: profoundly and dose-dependently induces
Keap1/Nrf2/ARE pathway; azathioprine-treated mice
  6-thioguanine incorporation into DNA of skin, blood, and liver: decreases
Keap1/Nrf2/ARE pathway
  systemic induction of the Keap1/Nrf2/ARE pathway: robust systemic induction
